What was measured:
Type in all cases: in vivo
[1] = test system: Foxtail, Giant (giant foxtail, Setaria faberi); assay: Test A postemergence, Foxtail, Giant; details: Postemergence
Outline: (§1)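 Directed soil spray at planting gave the preemergence treatment, while foliar application to one- to two-leaf seedlings (2–10 cm) gave the postemergence one; pots held a loam and sand mixture and chemicals were carried in a non-phytotoxic solvent with surfactant.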

[2] = test system: Ryegrass, Italian (Italian ryegrass, Lolium multiflorum); assay: Test A postemergence, Ryegrass, Italian; details: Postemergence
Outline: as §1

[3] = test system: pigweed (Amaranthus retroflexus); assay: Test A postemergence, pigweed; details: Postemergence
Outline: as §1

[4] = test system: barnyardgrass (Echinochloa crus-galli); assay: Test A preemergence, barnyardgrass; details: Preemergence; for Plant response rating, Barnyardgrass: 0 to 100 scale (0 no effect, 100 complete control); for Barnyardgrass plant response rating: 125 g ai/ha, visual injury on 0 to 100 scale (0 no effect, 100 complete control), approximately 10 days
Outline: as §1

[5] = test system: ragweed (common ragweed, Ambrosia artemisiifolia); assay: Test A preemergence, ragweed; details: Preemergence; for Plant response rating, Ragweed: 0 to 100 scale (0 no effect, 100 complete control); for Ragweed plant response rating: 125 g ai/ha, visual injury on 0 to 100 scale (0 no effect, 100 complete control), approximately 10 days
Outline: as §1

[6] = test system: kochia (Bassia scoparia); assay: Test A preemergence, kochia; details: Preemergence; for Plant response rating, Kochia: 0 to 100 scale (0 no effect, 100 complete control); for Kochia plant response rating: 125 g ai/ha, visual injury on 0 to 100 scale (0 no effect, 100 complete control), approximately 10 days
Outline: as §1

[7] = test system: corn (Zea mays); assay: Test A postemergence, corn; details: Postemergence
Outline: as §1

[8] = test system: pigweed (Amaranthus retroflexus); assay: Test A preemergence, pigweed; details: for Plant response rating, Pigweed: 0 to 100 scale (0 no effect, 100 complete control); for Pigweed plant response rating: 125 g ai/ha, visual injury on 0 to 100 scale (0 no effect, 100 complete control), approximately 10 days
Outline: (§2)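 Formulated with a surfactant in a non-phytotoxic solvent, compounds are applied to loam–sand pots, either to bare soil immediately after seeding (preemergence) or to seedlings of 2 to 10 cm bearing one to two leaves (postemergence).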

[9] = test system: wheat (Triticum aestivum); assay: Test A postemergence, wheat; details: Postemergence
Outline: as §2

[10] = test system: kochia (Bassia scoparia); assay: Test A postemergence, kochia; details: Postemergence
Outline: as §1

[11] = test system: galium (catchweed bedstraw, Galium aparine); assay: Test A postemergence, galium; details: Postemergence
Outline: as §2

[12] = test system: barnyardgrass (Echinochloa crus-galli); assay: Test A postemergence, barnyardgrass; details: Postemergence
Outline: as §2

[13] = test system: blackgrass (Alopecurus myosuroides); assay: Test A postemergence, blackgrass; details: Postemergence
Outline: as §1

[14] = test system: Foxtail, Giant (giant foxtail, Setaria faberi); assay: Test A preemergence, Foxtail, Giant; details: Preemergence; for Plant response rating, Foxtail, Giant: 0 to 100 scale (0 no effect, 100 complete control); for Foxtail, Giant plant response rating: 125 g ai/ha, visual injury on 0 to 100 scale (0 no effect, 100 complete control), approximately 10 days
Outline: as §1

[15] = test system: ragweed (common ragweed, Ambrosia artemisiifolia); assay: Test A postemergence, ragweed; details: Postemergence
Outline: as §1

[16] = test system: Ryegrass, Italian (Italian ryegrass, Lolium multiflorum); assay: Test A preemergence, Ryegrass, Italian; details: Preemergence; for Plant response rating, Ryegrass, Italian: 0 to 100 scale (0 no effect, 100 complete control); for Ryegrass, Italian plant response rating: 125 g ai/ha, visual injury on 0 to 100 scale (0 no effect, 100 complete control), approximately 10 days
Outline: as §1

[17] = 31 g ai/ha, visual injury on 0 to 100 scale (0 no effect, 100 complete control), approx. 10 days
[18] = 125 g ai/ha, 0 to 100 scale (0 no effect, 100 complete control)
[19] = 31 g ai/ha, visual injury, approx. 10 days
[20] = 31 g ai/ha, 0 to 100 scale (0 no effect, 100 complete control)
[21] = 125 g ai/ha, visual injury approx. 10 days, 0 to 100 scale (0 no effect, 100 complete control)
[22] = 500 g ai/ha, visual injury, 0 to 100 scale (0 no effect, 100 complete control), approx. 10 days

## Cc1cc(C)c(C2=NOC3(C2)CC(C)CC(C)C3)cc1NS(=O)(=O)C(F)(F)F (single isomer, unassigned) [Compound 167]
[1]; [17]
  Plant response rating, Foxtail, Giant: 0
[1]; [18]
  Plant response rating, Foxtail, Giant: 10
[2]; [17]
  Plant response rating, Ryegrass, Italian: 0
[2]; [18]
  Plant response rating, Ryegrass, Italian: 20
[3]; [17]
  Plant response rating, Pigweed: 20
[3]; [18]
  Plant response rating, Pigweed: 70
[4]; [19]
  Plant response rating, Barnyardgrass: 0
[4]
  Barnyardgrass plant response rating: 20
[5]; [19]
  Plant response rating, Ragweed: 0
[5]
  Ragweed plant response rating: 0
[6]; [19]
  Plant response rating, Kochia: 30
[6]
  Kochia plant response rating: 40
[7]; [17]
  Plant response rating, Corn: 0
[7]; [18]
  Plant response rating, Corn: 10
[8]; [19]
  Plant response rating, Pigweed: 0
[8]
  Pigweed plant response rating: 20
[9]; [17]
  Plant response rating, Wheat: 0
[9]; [18]
  Plant response rating, Wheat: 30
[10]; [17]
  Plant response rating, Kochia: 10
[10]; [18]
  Plant response rating, Kochia: 40
[11]; [17]
  Plant response rating, Galium: 0
[11]; [18]
  Plant response rating, Galium: 80
[12]; [17]
  Plant response rating, Barnyardgrass: 10
[12]; [18]
  Plant response rating, Barnyardgrass: 60
[13]; [17]
  Plant response rating, Blackgrass: 0
[13]; [18]
  Plant response rating, Blackgrass: 20
[14]; [19]
  Plant response rating, Foxtail, Giant: 0
[14]
  Foxtail, Giant plant response rating: 10
[15]; [17]
  Plant response rating, Ragweed: 0
[15]; [18]
  Plant response rating, Ragweed: 20
[16]; [19]
  Plant response rating, Ryegrass, Italian: 30
[16]
  Ryegrass, Italian plant response rating: 60

## Cc1cc(C)c(N(COC(=O)c2ccccc2)S(=O)(=O)C(F)(F)F)cc1C1=NOC2(CCCC2)C1 [Compound 149]
[1]; [17]
  Plant response rating, Foxtail, Giant: 0
[1]; [18]
  Plant response rating, Foxtail, Giant: 30
[2]; [17]
  Plant response rating, Ryegrass, Italian: 0
[2]; [18]
  Plant response rating, Ryegrass, Italian: 0
[3]; [17]
  Plant response rating, Pigweed: 0
[3]; [18]
  Plant response rating, Pigweed: 40
[4]; [19]
  Plant response rating, Barnyardgrass: 0
[4]
  Barnyardgrass plant response rating: 0
[5]; [19]
  Plant response rating, Ragweed: 0
[5]
  Ragweed plant response rating: 0
[6]; [19]
  Plant response rating, Kochia: 0
[6]
  Kochia plant response rating: 0
[7]; [17]
  Plant response rating, Corn: 0
[7]; [18]
  Plant response rating, Corn: 0
[8]; [19]
  Plant response rating, Pigweed: 30
[8]
  Pigweed plant response rating: 70
[9]; [17]
  Plant response rating, Wheat: 0
[9]; [18]
  Plant response rating, Wheat: 0
[10]; [17]
  Plant response rating, Kochia: 0
[10]; [18]
  Plant response rating, Kochia: 10
[11]; [17]
  Plant response rating, Galium: 0
[11]; [18]
  Plant response rating, Galium: 60
[12]; [20]
  Plant response rating, Barnyardgrass: 10
[12]; [18]
  Plant response rating, Barnyardgrass: 40
[13]; [20]
  Plant response rating, Blackgrass: 0
[13]; [18]
  Plant response rating, Blackgrass: 20
[14]; [19]
  Plant response rating, Foxtail, Giant: 30
[14]
  Foxtail, Giant plant response rating: 80
[15]; [17]
  Plant response rating, Ragweed: 0
[15]; [18]
  Plant response rating, Ragweed: 20
[16]; [19]
  Plant response rating, Ryegrass, Italian: 50
[16]
  Ryegrass, Italian plant response rating: 50

## COc1cc(-c2cc(N(S(=O)(=O)C(F)(F)F)S(=O)(=O)C(F)(F)F)c(C)cc2C)c(=O)n(C)n1 [Compound 35]
[1]; [21]
  Plant response rating, Foxtail, Giant: 0
[1]; [22]
  Plant response rating, Foxtail, Giant: 10
[2]; [21]
  Plant response rating, Ryegrass, Italian: 0
[2]; [22]
  Plant response rating, Ryegrass, Italian: 40
[3]; [21]
  Plant response rating, Pigweed: 30
[3]; [22]
  Plant response rating, Pigweed: 60
[4]
  Barnyardgrass plant response rating: 70
[4]; 500 g ai/ha
  Plant response rating, Barnyardgrass: 90
[5]
  Ragweed plant response rating: 20
[5]; 500 g ai/ha
  Plant response rating, Ragweed: 80
[6]
  Kochia plant response rating: 0
[6]; 500 g ai/ha
  Plant response rating, Kochia: 20
[7]; [21]
  Plant response rating, Corn: 0
[7]; [22]
  Plant response rating, Corn: 0
[8]
  Pigweed plant response rating: 50
[8]; 500 g ai/ha
  Plant response rating, Pigweed: 80
[9]; [21]
  Plant response rating, Wheat: 0
[9]; [22]
  Plant response rating, Wheat: 40
[10]; [21]
  Plant response rating, Kochia: 0
[10]; [22]
  Plant response rating, Kochia: 10
[11]; [21]
  Plant response rating, Galium: 60
[11]; [22]
  Plant response rating, Galium: 70
[12]; [21]
  Plant response rating, Barnyardgrass: 0
[12]; [22]
  Plant response rating, Barnyardgrass: 80
[13]; [21]
  Plant response rating, Blackgrass: 20
[13]; [22]
  Plant response rating, Blackgrass: 30
[14]
  Foxtail, Giant plant response rating: 60
[14]; 500 g ai/ha
  Plant response rating, Foxtail, Giant: 90
[15]; [21]
  Plant response rating, Ragweed: 0
[15]; [22]
  Plant response rating, Ragweed: 40
[16]
  Ryegrass, Italian plant response rating: 40
[16]; 500 g ai/ha
  Plant response rating, Ryegrass, Italian: 50

Reference: patent US20230278972A1, “SUBSTITUTED HALOALKYL SULFONANILIDE HERBICIDES” (FMC Corporation, priority 2020, published 2023)
